Reference: article PMC5514404 (EBioMedicine, 2017)

Tests used:
HIV-1 replication = details: ref Ewart et al., 2004; cited from earlier work
[1] = system: extracellular HIV-1 Tat release from HEK293T cells; experiment: HIV-1 Tat secretion assay; type: cell-based, human
[2] = system: Na^+,K^+-ATPase α1 subunit (interaction with Tat); experiment: Co-immunoprecipitation of Tat with endogenous Na^+,K^+-ATPase α1 subunit; type: cell-based, human; details: HEK293T, Tat86 transfected; ouabain 25 μM, 4 h
[3] = system: HIV-1 LTR transactivation in HL3T1 cells by supernatants of Tat86-transfected HEK293T cells; experiment: Transcellular transactivation assay; type: cell-based; details: ouabain 25 μM, 4 h; HL3T1 24 h; CAT ELISA
[4] = system: VSV-G pseudotyped HIV-1NL4.3E-R-Luc production by HEK293T cells; type: cell-based
[5] = system: wt HIV-1BRU production by HEK293T cells; type: cell-based; details: p24 ELISA; ouabain; P<0.01 over untreated
[6] = system: VSV-G-pseudotyped HIV-1NL4.3E-R-Luc infectivity in Jurkat cells; type: cell-based
[7] = system: HIV-1BRU infectivity in Jurkat cells; type: cell-based; details: P < 0.01
[8] = system: HIV-1BRU infectivity in primary CD4 + lymphocytes; type: cell-based; details: p24 at 72 h, P < 0.01
[9] = system: VSV-G-pseudotyped HIV-1NL4.3E-R-Luc infection of Jurkat cells; type: cell-based
HEK293T cells = details: ouabain 15 h
rat Na^+,K^+-ATPase = details: ref Emanuel et al., 1988; cited from earlier work
[10] = system: rat Na^+,K^+-ATPase α1 (interaction with Tat); experiment: Co-immunoprecipitation of Tat with transfected rat Na^+,K^+-ATPase α1; details: HEK293T transfected with rat α1 constructs and Tat86-TK / Tat11-TK
[11] = molecular target: Tat86 used in surface plasmon resonance (HIV-1 (strain HXB2), UniProt P04608 1-86); experiment: SPR

Molecule: CCN(c1nc(N)c(C(=O)NC(=N)N)nc1Cl)C(C)C [EIPA, 5-(N-ethyl-N-isopropyl)amiloride]
- effect on HIV-1 replication (HIV-1 replication): known to limit HIV-1 replication

Molecule: C[C@@H]1O[C@@H](O[C@H]2C[C@@H](O)[C@]3(CO)[C@H]4[C@H](O)C[C@]5(C)[C@@H](C6=CC(=O)OC6)CC[C@]5(O)[C@@H]4CC[C@]3(O)C2)[C@H](O)[C@H](O)[C@H]1O [ouabain]
- effect on Tat protein production ([1]; protein levels in whole cell extracts, ouabain 25 μM): did not affect Tat protein production
- effect on Tat-α1 co-immunoprecipitation (endogenous α1) [2]: abolished this interaction
- effect of ouabain on transcellular transactivation [3]: blocked transcellular transactivation
- production of VSV-G pseudotyped virions [4]: significantly decreased the production of VSV-G pseudotyped virions
- production of wt HIV-1BRU virions [5]: The same was also observed for wt HIV-1BRU virions
- infectivity of virions produced in presence of ouabain [6]: markedly less infectious
- viral integration (Alu-PCR) by virions produced in presence of ouabain [6]: reduced viral integration
- viral integration (Alu-PCR) by HIV-1BRU produced in presence of ouabain [7]: reduced viral integration
- infectivity of HIV-1BRU produced in presence of ouabain ([7]; p24 at 72 h): markedly less infectious
- infectivity of HIV-1BRU produced in presence of ouabain [8]: markedly less infectious
- effect of ouabain present at infection on virions produced without ouabain [9]: unaffected by the presence of the drug
- cell toxicity during virus production (HEK293T cells): did not exert significant cell toxicity
- sensitivity of rat Na^+,K^+-ATPase enzyme to ouabain (rat Na^+,K^+-ATPase): insensitive to ouabain
- co-immunoprecipitation with Tat / ouabain effect, rat α1 [10]: binding is not sensitive to ouabain

Molecule: heparin
- amount of free Tat-TK protein in the supernatant ([1]; HEK293T, soluble heparin 25 μM): increased

Molecule: TRRNSVFQQGMKN (peptide, UniProt P06685 939-951, looked up) [synthetic P2 peptide]
- IC50 [11]: 10 µM

B1: PMIX, equimolar mixture of the individual P1, P2 and P3 peptides (other, rat)
peptide 1: YEQAESDIMKRQPRNPKTDK
peptide 2: TRRNSVFQQGMKN
peptide 3: LIIRRRPGGWVEKETYY
- IC50 [11]: 0.5 µM
